In patent publication US20030203963A1, “Antimicrobial agent” (priority 2001, published 2003):

Legend:
Ps. fluorescens 10460 = experiment: Bioscreen growth inhibition test; format: cell-based, Pseudomonas fluorescens; conditions: BS010510, 24 h/30, APP20010213
Method: (§1) For broth cultures and Bioscreen testing most bacteria were grown in Brain Heart Infusion (BHI, Oxoid, pH 7.4). Lactobacillus sake A10 was grown in de Man, Rogosa, Sharpe medium ([…], Oxoid). Yeasts were grown in Sabouraud Liquid medium (SLM, Oxoid). Most bacteria were cultured at 30° C. Lactic acid bacteria were grown on solid medium in enriched CO2 atmosphere. Clostridium species were grown in Reinforced Clostridial Medium (RCM) at 37° C. anaerobically. Brochothrix thermosphacta fungi and yeasts were grown at 25° C. Fungi were cultured on Malt Extract Agar (MEA, Oxoid).
(§2) An automated Microbiology Reader Bioscreen C was used to measure growth curves of the strains in the presence and absence of APP. The Bioscreen C measures the development of turbidity (i.e. growth) kinetically by vertical photometry in 200 wells of a honeycomb microtitre plate, simultaneously. The system consists of a Bioscreen C analyser, which is an incubator and measurement unit, integrated with a PC, software (BioLink v 5.30), printer and a ‘Honeycomb 2’ cuvette multiwell plate. Growth curve data can be analysed within the BioLink software or exported to programs such as Excel.
(§3) Broth culture media were dispensed in 270 μl volumes into the wells as directed. Serial dilutions of a filter-sterilised APP stock solution were then dispensed into the same wells, as appropriate. The wells were inoculated with 30 μl of an appropriately diluted overnight broth culture or spore suspension, to give a final inoculum level of […]. The tests were incubated in the Bioscreen C for either 24 h at 30° C., or 72 h at 25° C. (depending on the micro-organism under investigation) with readings taken every 20 minutes after the trays were shaken. After the incubation period was complete the data were exported to Excel for analysis.

Ps. fluorescens 1331 = experiment: Bioscreen growth inhibition test; format: cell-based, Pseudomonas fluorescens; conditions: BS010510, 24 h/30, APP20010213
Method: as §1, §2, §3

Ps. fluorescens 327 = experiment: Bioscreen growth inhibition test; format: cell-based, Pseudomonas fluorescens; conditions: BS010510, 24 h/30, APP20010213
Method: as §1, §2, §3

Ps. fluorescens 3756 [1] = experiment: Bioscreen growth inhibition test; format: cell-based, Pseudomonas fluorescens; conditions: BS010411, 24 h/30° C.
Method: as §1, §2, §3

S. cerevisiae ATCC9763 = experiment: Test in apple juice; format: cell-based, Saccharomyces cerevisiae; conditions: 2000 ppm; apple juice (pH 3.42) at 25° C., TAJ010530
Method: 8.9 ml apple juice samples (pH 3.42) were prepared and autoclaved. Batch number APP20010215 (at 138 mg/ml) was used to prepare filter-sterilised stock solutions for 1 ml addition to the juice to achieve 0, 1000, 2000 ppm APP. Tests were inoculated with 100 μl of an appropriately diluted overnight SLM broth of yeast culture or ascospore suspension of Byssochlamys spores prepared earlier. The tests were incubated at 25° C., and examined daily for signs of growth (e.g. turbidity, mycelium development).

Ps. fluorescens 3756 [2] = experiment: Test in cooked minced beef slurry; format: cell-based, Pseudomonas fluorescens
Method: 1 kg of minced beef, purchased from the local butcher, was mixed with 1 litre of BHI. 200 g portion of this meat slurry was autoclaved. When the meat had cooled, the pH was recorded (pH 6.24), and each pot was inoculated with 2.0 ml of 10^5 spores or cells and the meat re-mixed thoroughly. Each inoculated 200 g pot was distributed as 3×50 g portions. To each pot 1 ml of SDW, 5% or 10% APP (Batch No. APP20010215) was added, and the meat was again mixed thoroughly. An initial viable count was performed, the meat was incubated at 8° C. and sampled twice weekly. The pH of the cooked minced beef slurry was 6.24.

Ps. fluorescens = experiment: Chicken soup at 8° C. (summary); format: cell-based, Pseudomonas fluorescens; conditions: Chicken soup at 8° C. pH 5.8
Text: A local supermarket brand of cream of chicken soup was used as a model food system. 600 g packs were purchased from the local supermarket. This was a ‘fresh home-made type’ of soup that was stored in the chill cabinet, with a short shelf life. It was chosen because it is a rich, nutritious food system containing a range of food components including meat, dairy and vegetable.
Ingredients were labelled as: chicken stock (water, duck fat, chicken, salt, flavourings, yeast extracts, pork gelatine, glucose syrup, vegetable concentrate, milk protein, sugar, malto-dextrin, vegetable oil, citric acid, lactose, chicken fat), ilk, chicken (9%), cream (8%), onion, potato, vegetable oil, modified maize starch, wheat flour, lemon juice, salt, white pepper. pH 5.912. Protein: 3.3%; carbohydrate: 4.7%; fat: 7.2%; fibre: 0.2%; sodium: 0.1%
For the test the soup was mixed 2:1 in water (to facilitate sampling and mixing) and sterilised by autoclaving at 121° C. for 15 minutes. For each experiment the pH of the soup was recorded; this was between pH 5.79-5.88.
For TCS010412/8 (which was incubated at 8° C.), APP batch number APP20010213 (concentration 169 mg APP/ml) was used to prepare tests containing 0, 2000 or 4000 ppm APP. […]
For TCS010521/8 (incubated at 8° C.), samples were prepared in 27.8 g quantities. […]

Question: How did the “APP level causing significant inhibition” value (Ps. fluorescens 10460) turn out when `O=C1CC(CO)OC=C1O` (stereo not shown) [APP, Ascopyrone P] was run?
Answer: The value was 1000 ppm.

Question: What about the “APP level causing total inhibition” value (Ps. fluorescens 10460) of the same compound?
Answer: The value was 2000 ppm.

Question: And the “APP level causing total inhibition” value (Ps. fluorescens 1331)?
Answer: Its value is 1000 ppm.

Question: And the “APP level causing total inhibition” value (Ps. fluorescens 327)?
Answer: Its value is 1000 ppm.

Question: What about the “APP level causing significant inhibition” value (Ps. fluorescens 3756 [1]; APP 20010213) of the same compound?
Answer: The value was 1000 ppm.

Question: And the “APP level causing total inhibition” value (Ps. fluorescens 3756 [1]; APP 20010213)?
Answer: Its value is 2000 ppm.

Question: And the “APP level causing significant inhibition” value (Ps. fluorescens 3756 [1]; APP 20010215)?
Answer: The value was 1000 ppm.

Question: And the “APP level causing total inhibition” value (Ps. fluorescens 3756 [1]; APP 20010215)?
Answer: The value was 2000 ppm.

Question: And the “Growth controlled for” value (S. cerevisiae ATCC9763)?
Answer: The value was 1 days.

Question: What about the “Growth delayed by” value (Ps. fluorescens 3756 [2]; 1000 ppm, minced beef slurry at 8° C., pH 6.24, TCM010619) of the same compound?
Answer: Its value is 1000 ppm delayed growth by 17 d.

Question: And the “Total inhibition for” value (Ps. fluorescens 3756 [2]; 2000 ppm, minced beef slurry at 8° C., pH 6.24, TCM010619)?
Answer: The value was “Total inhibition by 2000 ppm for 27 d”.

Question: What about the “Total inhibition (effect on growth of target organism by 2000 ppm APP)” value (Ps. fluorescens 3756 [2]; Cooked minced beef slurry at 8° C. pH 6.24) of the same compound?
Answer: Its value is “Ps. fluorescens”.

Question: And the “Total inhibition (effect on growth of target organism by 2000 ppm APP)” value (Ps. fluorescens)?
Answer: The value was “Ps. fluorescens”.
